# Measured values as given in publication PMC8634746 (International Journal of Peptide Research and Therapeutics, 2021).
# Peptide text beside a SMILES is read from it.
# Target: S1-ACE2 complex (Severe acute respiratory syndrome coronavirus 2, UniProt P0DTC2)
# Format: binding, human (ACE2); SARS-CoV-2 (S1)
# Conditions: 5 μM peptide; preincubation 3 to 60 min
compound,measurement,value
CC(C)C[C@H](NC(=O)[C@H](CC(=O)O)NC(=O)[C@H](CCC(=O)O)NC(=O)[C@H](C)NC(=O)[C@H](CCC(=O)O)NC(=O)[C@H](Cc1c[nH]cn1)NC(=O)[C@H](CC(N)=O)NC(=O)[C@H](Cc1ccccc1)NC(=O)[C@H](CCCCN)NC(=O)[C@H](CC(=O)O)NC(=O)[C@H](CC(C)C)NC(=O)[C@H](Cc1ccccc1)NC(=O)[C@@H](NC(=O)[C@H](CCCCN)NC(=O)[C@H](C)NC(=O)[C@@H](N)CCC(N)=O)[C@@H](C)O)C(=O)N[C@@H](Cc1ccccc1)C(=O)N[C@@H](Cc1ccc(O)cc1)C(=O)N[C@@H](CCC(N)=O)C(N)=O (H-QAKTFLDKFNHEAEDLFYQ-NH2),half-life of preincubation-time effect on koff^rel,14 min
